One test concerns Ba/F3. Kind of test: Cell proliferation inhibition, Cell Titer-Glo, Ba/F3. The class given is cell-based. The note with it: Mus musculus, BaF3; cell proliferation assay, Ba/F3 cells. In outline:
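Ba/F3 cells were seeded at 2500-5000 cells per well in white, clear-bottomed 384-well culture plates and exposed to serial dilutions of test compounds for 3 days. Cell Titer-Glo Luminescent Cell Viability Assay (Promega) reagent, which measures total ATP as an indicator of metabolic activity, was added. Luminescence was read on a multiwell plate reader to derive IC50 values for inhibition of proliferation.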
Background: In ATP-based viability assays light output follows the ATP content of the culture.

Another test deals with Karpas-299. Kind of test: Cell proliferation inhibition, Cell Titer-Glo, Karpas-299. The class given is cell-based. The note with it: Homo sapiens; cell proliferation assay, Karpas-299 cells. In outline: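 Karpas 299 cells were seeded into white, clear-bottomed 384-well culture plates at 2500-5000 cells per well and exposed to serial dilutions of test compounds for about 3 days. Viable cell numbers were then measured with the Cell Titer-Glo Luminescent Cell Viability Assay (Promega), which detects total ATP, and IC50 values for proliferation inhibition were derived.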

Another test addresses T1, InsR (Homo sapiens, UniProt P06213).
T1 construct: 6×His- or GST-tagged kinase domain fragments of the corresponding RTKs expressed in baculovirus system; host or cells: baculovirus system
Put plainly: Tyrosine kinase assay (Kinase-Glo or AlphaScreen), InsR. The note with it: biochemical tyrosine kinase assay. In outline: (§1)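 Baculovirus-expressed His- or GST-tagged kinase domains with poly(Glu-Tyr) substrate, 10 μM ATP, pH 7.5 Tris with MgCl2/MnCl2. Kinase-Glo: 60 min at 37 °C, residual ATP by luminescence; AlphaScreen: 30 min at RT, then anti-phosphotyrosine beads 60 min. Eight concentrations, 1 nM to 20 μM; IC50 by nonlinear regression.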
For orientation: In Kinase-Glo more light means more ATP remaining.

In another test the target is T2, IGF1R tyrosine kinase (Homo sapiens, UniProt P08069).
T2 construct: 6×His- or GST-tagged kinase domain fragments of the corresponding RTKs expressed in baculovirus system; host or cells: baculovirus system
T2 sequence (P08069 999-1274 limits assumed): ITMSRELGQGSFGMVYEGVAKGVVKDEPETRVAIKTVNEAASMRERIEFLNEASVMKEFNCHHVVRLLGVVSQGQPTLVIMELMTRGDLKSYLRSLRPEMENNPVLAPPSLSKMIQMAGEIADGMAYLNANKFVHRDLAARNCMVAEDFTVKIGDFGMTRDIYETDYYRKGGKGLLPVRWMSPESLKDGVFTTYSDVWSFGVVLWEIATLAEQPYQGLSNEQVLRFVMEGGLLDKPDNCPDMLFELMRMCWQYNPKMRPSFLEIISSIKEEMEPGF
Kind of test: IGF1R tyrosine kinase assay (Kinase-Glo ATP depletion or PT66/PT100 AlphaScreen). The note with it: biochemical tyrosine kinase assay. In outline: as §1

Another test concerns the target T3, Jak2 (Homo sapiens, UniProt O60674).
T3 construct: 6×His- or GST-tagged kinase domain fragments of the corresponding RTKs expressed in baculovirus system; host or cells: baculovirus system
Kind of test: Tyrosine kinase assay (Kinase-Glo or AlphaScreen), Jak2. The note with it: biochemical tyrosine kinase assay. In outline: as §1

A further test concerns K562. Put plainly: Cell proliferation inhibition, Cell Titer-Glo, K562. The class given is cell-based. The note with it: Homo sapiens; cell proliferation assay, K562 cells. In outline:
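K562 cells were seeded at 2500-5000 cells per well in white, clear-bottomed 384-well culture plates and treated with dilutions of test compounds for typically 3 days. Viable cells were quantified with the Cell Titer-Glo Luminescent Cell Viability Assay (Promega), which measures total ATP, read on a luminescence plate reader to derive IC50 values for proliferation inhibition.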

Another test has as its target T4, Alk (Homo sapiens, UniProt Q9UM73).
T4 construct: 6×His- or GST-tagged kinase domain fragments of the corresponding RTKs expressed in baculovirus system; host or cells: baculovirus system
Kind of test: Tyrosine kinase assay (Kinase-Glo or AlphaScreen), Alk. The note with it: biochemical tyrosine kinase assay. In outline:
as §1

T4 sequence (Q9UM73 1116-1392 limits assumed, species assumed): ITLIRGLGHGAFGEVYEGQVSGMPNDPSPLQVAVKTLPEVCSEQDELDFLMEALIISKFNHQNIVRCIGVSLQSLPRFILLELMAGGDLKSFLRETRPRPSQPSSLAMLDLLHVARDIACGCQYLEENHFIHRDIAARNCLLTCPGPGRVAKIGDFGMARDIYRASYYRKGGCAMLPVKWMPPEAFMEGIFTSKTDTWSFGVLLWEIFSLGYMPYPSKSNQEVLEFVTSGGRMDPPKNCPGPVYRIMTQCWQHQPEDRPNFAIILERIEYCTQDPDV
T1 sequence (P06213 1023-1298 limits assumed, species assumed): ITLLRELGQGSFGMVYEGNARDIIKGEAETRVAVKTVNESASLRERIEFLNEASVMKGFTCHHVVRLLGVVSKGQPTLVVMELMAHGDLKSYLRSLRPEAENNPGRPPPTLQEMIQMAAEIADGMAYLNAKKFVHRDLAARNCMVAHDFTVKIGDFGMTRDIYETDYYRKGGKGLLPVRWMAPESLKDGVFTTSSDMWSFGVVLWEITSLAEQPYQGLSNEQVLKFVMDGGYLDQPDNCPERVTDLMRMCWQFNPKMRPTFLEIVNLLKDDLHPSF
T3 sequence (O60674 849-1124 limits assumed, species assumed): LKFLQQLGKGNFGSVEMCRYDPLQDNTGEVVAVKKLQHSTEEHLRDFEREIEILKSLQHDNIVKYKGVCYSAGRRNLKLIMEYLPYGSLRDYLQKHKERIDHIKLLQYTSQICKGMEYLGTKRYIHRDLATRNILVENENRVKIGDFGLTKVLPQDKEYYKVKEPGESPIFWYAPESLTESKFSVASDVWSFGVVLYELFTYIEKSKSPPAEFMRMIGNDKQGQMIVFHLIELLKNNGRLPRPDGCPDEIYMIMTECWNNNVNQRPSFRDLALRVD

As to `CN1CCC(N2C(=O)c3cc4nc(-c5c(NC[C@@H](O)COc6cccc7[nH]ccc67)ccnc5O)[nH]c4cc3C2=O)CC1` [compound 101], the IC50 with Ba/F3 is more than 15 µM; in the test with Karpas-299, more than 15 µM; against InsR, less than 0.5 µM; at IGF1R tyrosine kinase, less than 0.5 µM; at Jak2, 0.5 to 5 µM; with K562, more than 15 µM. The IC50 against Alk was less than 0.5 µM.

Regarding `CN1CCC(N2C(=O)c3cc4nc(-c5c(NC[C@@H](O)COc6cccc(C(F)(F)F)c6)ccnc5O)[nH]c4cc3C2=O)CC1` [compound 73], the IC50 in the test with Ba/F3 was more than 15 µM; with Karpas-299 it was 0.5 to 5 µM; against InsR, 0.5 to 5 µM; on IGF1R tyrosine kinase, 0.5 to 5 µM; against Jak2, 0.5 to 5 µM; with K562, 0.5 to 5 µM. The same molecule gave an IC50 on Alk of 5 to 15 µM.

Regarding `CN1CCC(N2C(=O)c3cc4nc(-c5c(NC[C@@H](O)Cn6cnc7ccccc76)ccnc5O)[nH]c4cc3C2=O)CC1` [compound 49], the IC50 in the test on Ba/F3 is more than 15 µM; with Karpas-299 it was more than 15 µM; against InsR it was 0.5 to 5 µM; against IGF1R tyrosine kinase it was 0.5 to 5 µM; on Jak2, 0.5 to 5 µM; in the test on K562 it was more than 15 µM. The concentration for half-maximal inhibition (IC50) against Alk is 0.5 to 5 µM.

On to `CN(C)CC(C)(C)CN1C(=O)c2cc3nc(-c4c(NC[C@@H](O)c5cccc(Cl)c5)ccnc4O)[nH]c3cc2C1=O` [compound 60], for which the IC50 in the test on Ba/F3 was more than 15 µM; in the test with Karpas-299, more than 15 µM; on InsR, 0.5 to 5 µM; against IGF1R tyrosine kinase it was 0.5 to 5 µM; against Jak2 it was 0.5 to 5 µM; in the test on K562, more than 15 µM. The IC50 against Alk lay in the range of 5 to 15 µM.

With `Cc1ccc(Cl)cc1OC[C@H](O)CNc1ccnc(O)c1-c1nc2cc3c(cc2[nH]1)C(=O)N(C1CCN(C)CC1)C3=O` [compound 55], the IC50 was 0.5 to 5 µM in the test on Ba/F3; 0.5 to 5 µM in the test with Karpas-299; 0.5 to 5 µM at InsR; less than 0.5 µM against IGF1R tyrosine kinase; 0.5 to 5 µM at Jak2; 0.5 to 5 µM in the test with K562. At Alk, this molecule showed an IC50 of 0.5 to 5 µM.

As for `CN1CCC(N2C(=O)c3cc4nc(-c5c(N[C@@H](CO)Cc6ccccc6)cc[nH]c5=O)[nH]c4cc3C2=O)CC1` [compound 5], the IC50 in the test with Ba/F3, in the test with Karpas-299, at InsR, against IGF1R tyrosine kinase, against Jak2 and with K562 was 0.5 to 5 µM throughout. Also, the IC50 at Alk was less than 0.5 µM.

In the case of `CN1CCC(N2C(=O)c3cc4nc(-c5c(NC[C@@H](O)COc6cccc(C#N)c6)ccnc5O)[nH]c4cc3C2=O)CC1` [compound 52], the IC50 in the test on Ba/F3 is more than 15 µM; in the test with Karpas-299, more than 15 µM; against InsR, 0.5 to 5 µM; on IGF1R tyrosine kinase it was less than 0.5 µM; against Jak2 it was 0.5 to 5 µM; in the test with K562, more than 15 µM. Also, the IC50 against Alk was 0.5 to 5 µM.

For `O=C1c2cc3nc(-c4c(NC[C@@H](O)c5cccc(Cl)c5)cc[nH]c4=O)[nH]c3cc2C(=O)N1CCCO` [compound 44], the IC50 with Ba/F3 is more than 15 µM; in the test with Karpas-299, 5 to 15 µM; on InsR, 0.5 to 5 µM; against IGF1R tyrosine kinase, 0.5 to 5 µM; against Jak2, 0.5 to 5 µM; in the test on K562, 5 to 15 µM. For the same molecule, the IC50 at Alk is more than 15 µM.

In the case of `Cc1ncccc1OC[C@H](O)CNc1ccnc(O)c1-c1nc2cc3c(cc2[nH]1)C(=O)N(C1CCN(C)CC1)C3=O` [compound 71], the IC50 was more than 15 µM in the test with Ba/F3; more than 15 µM with Karpas-299; 0.5 to 5 µM on InsR; 0.5 to 5 µM at IGF1R tyrosine kinase; 5 to 15 µM at Jak2; more than 15 µM in the test on K562. The IC50 against Alk lay in the range of 5 to 15 µM.

Regarding `CN1CCC(N2C(=O)c3cc4nc(-c5c(NC[C@@H](O)COc6cccc7c6OC(F)C(F)(F)O7)cc[nH]c5=O)[nH]c4cc3C2=O)CC1` (stereo partly drawn) [compound 82], the IC50 is more than 15 µM in the test with Ba/F3; more than 15 µM in the test with Karpas-299; 0.5 to 5 µM on InsR; less than 0.5 µM on IGF1R tyrosine kinase; 0.5 to 5 µM against Jak2; more than 15 µM in the test with K562. For the same molecule, on Alk, the IC50 was 0.5 to 5 µM.

On to `CN(C)CCN1CCC(N2C(=O)c3cc4nc(-c5c(NC[C@@H](O)COc6c(F)ccc(Cl)c6F)cc[nH]c5=O)[nH]c4cc3C2=O)CC1` [compound 128], for which the IC50 in the test with Ba/F3 is more than 15 µM; with Karpas-299 it was more than 15 µM; on InsR, 0.5 to 5 µM; on IGF1R tyrosine kinase it was less than 0.5 µM; against Jak2, 0.5 to 5 µM; in the test with K562 it was more than 15 µM. This molecule also displayed an IC50 against Alk of 0.5 to 5 µM.

With `Cc1cccc(OCC(O)CNc2cc[nH]c(=O)c2-c2nc3cc4c(cc3[nH]2)C(=O)N(C2CCN(C)CC2)C4=O)c1` (stereo not drawn) [compound 105], the IC50 was more than 15 µM with Ba/F3; more than 15 µM in the test on Karpas-299; 0.5 to 5 µM on InsR; 0.5 to 5 µM at IGF1R tyrosine kinase; 0.5 to 5 µM against Jak2; 5 to 15 µM with K562. On Alk, this molecule yielded an IC50 of 5 to 15 µM.

In the case of `CN1CCC(N2C(=O)c3cc4nc(-c5c(NC[C@@H](O)COc6ccc(C#N)c(Cl)c6)ccnc5O)[nH]c4cc3C2=O)CC1` [compound 77], the IC50 was more than 15 µM in the test on Ba/F3; more than 15 µM in the test on Karpas-299; 5 to 15 µM against InsR; 0.5 to 5 µM on IGF1R tyrosine kinase; 0.5 to 5 µM against Jak2; more than 15 µM in the test on K562. Also, at Alk, the IC50 lay within 0.5 to 5 µM.

For the molecule `COc1cc(F)ccc1OC[C@@H](O)CNc1ccnc(O)c1-c1nc2cc3c(cc2[nH]1)C(=O)N(C1CCN(C)CC1)C3=O` [compound 58], the IC50 with Ba/F3 lay in the range of 5 to 15 µM; with Karpas-299, 5 to 15 µM; against InsR, 0.5 to 5 µM; on IGF1R tyrosine kinase it was 0.5 to 5 µM; against Jak2, 5 to 15 µM; with K562, 5 to 15 µM. The IC50 at Alk was 0.5 to 5 µM.

For `CC(Nc1cc[nH]c(=O)c1-c1nc2cc3c(cc2[nH]1)C(=O)N(C1CCN(C)CC1)C3=O)C1COc2ccccc2O1` (stereo not drawn) [compound 40], the IC50 lay in the range of 0.5 to 5 µM in the test with Ba/F3; 5 to 15 µM in the test with Karpas-299; 5 to 15 µM at InsR; 5 to 15 µM against IGF1R tyrosine kinase; 0.5 to 5 µM at Jak2; 5 to 15 µM in the test with K562. At Alk, the IC50 was 5 to 15 µM.

Regarding `CN1CCC(N2C(=O)c3cc4nc(-c5c(NC[C@@H](O)COc6cccc(N7CCOCC7)c6)ccnc5O)[nH]c4cc3C2=O)CC1` [compound 53], the IC50 with Ba/F3 was more than 15 µM; in the test on Karpas-299 it was more than 15 µM; against InsR, 5 to 15 µM; at IGF1R tyrosine kinase it was 5 to 15 µM; against Jak2, 0.5 to 5 µM; in the test on K562 it was more than 15 µM. On Alk, this molecule returned an IC50 of 0.5 to 5 µM.

Turning to `Cc1ccc(OCC(O)CNc2ccnc(O)c2-c2nc3cc4c(cc3[nH]2)C(=O)N(CCCn2cccn2)C4=O)c(C)c1` (stereo not drawn) [compound 63], the IC50 in the test on Ba/F3, in the test with Karpas-299, against InsR, against IGF1R tyrosine kinase, against Jak2 and in the test on K562 was more than 15 µM throughout. Moreover, the IC50 at Alk is 0.5 to 5 µM.

For the molecule `CN1CCC(N2C(=O)c3cc4nc(-c5c(NC[C@@H](O)COc6ccc7c(c6)OCO7)ccnc5O)[nH]c4cc3C2=O)CC1` [compound 78], the concentration for half-maximal inhibition (IC50) is more than 15 µM with Ba/F3; 5 to 15 µM with Karpas-299; 0.5 to 5 µM against InsR; less than 0.5 µM against IGF1R tyrosine kinase; 0.5 to 5 µM at Jak2; 5 to 15 µM in the test on K562. On Alk, this molecule registered an IC50 of 0.5 to 5 µM.

The IC50 is the concentration needed to halve the response being measured. Lower therefore signals inhibition by little substance.

Source of the values: patent US8063225B2, “Tricyclic compound derivatives useful in the treatment of neoplastic diseases, inflammatory disorders and immunomodulatory disorders” (Chembridge Corporation, priority 2006, dated 2011).
